Assay results reported in patent US9617264B2, “2,7-diazaspiro[3.5]nonane compounds” (REMYND NV, priority 2014, dated 2017).
pEC50: −log10 of the molar value.

tested on: M17_3SYN cells; test: Paraquat-induced cytotoxicity (LDH) in α-synuclein over-expressing M17_3SYN neuroblastoma cells; format: cell-based; conditions: Homo sapiens, Neuroblastoma cell, 48 h, 6 mM Paraquat, 2 days, LDH toxicity inhibition, read-out: SYN EC50
From the text: A α-synuclein expression plasmid was constructed by subcloning the NcoI/XhoI fragment from 212T-SYN(WT) (Griffioen et al., Biochem Biophys Acta (2006) 1762(3):312-318) containing the cDNA of human wild type α-synuclein correspondingly into a standard mammalian expression vector pcDNA3.1 resulting in plasmid pcDNA3.1-SYNwt. Plasmids pcDNA3.1 and pcDNA3.1-SYNwt were transfected into human neuroblastoma cells (BE-M17; ATCC No. CRL-2267™) using lipofectamine reagent and subsequently, independent clonal cell lines with the plasmids stably integrated into the genome were selected by antibiotic resistance selection (Geneticin (G418)), resulting in cell lines M17.pcDNA3 and M17_3SYN. Overexpression of α-synuclein in the M17_3SYN cell line was confirmed by Western blot analysis.
Due to the high levels of α-synuclein, M17_3SYN cells were sensitive to paraquat, a well-known risk factor Parkinson's disease and of synuclein-dependent neuronal degeneration. Cytotoxicity of cells was measured by quantification of lactate dehydrogenase (LDH) levels. In dead cells, LDH leaked out of the cells into the medium due to a loss of plasma-membrane integrity.
Three days preceding the experiment, primary pre-cultures of M17.pcDNA3 (as possible control) and M17_3SYN cells were prepared, starting from a stock culture, at a density of 20.000-40.000 cells/cm2 in culture medium (Opti-MEM® Reduced Serum Medium with Phenol Red (Invitrogen, Cat. 31985-047) supplemented with 10% FCS, 1 mM sodium pyruvate, 1×NEAA, 500 μg/ml G418 and 0.5× antibiotic/antimycotic (ABAM)). 3 days later these primary pre-cultures were used as a starting point to make secondary pre-cultures at a density of 50.000-100.000 cells/cm^2. At the day of the experiment these secondary precultures were diluted to ˜0.5·10^6 cells/ml in detection medium (Opti-MEM® Reduced-Serum Medium without Phenol Red (Invitrogen, Cat. 11085-021) supplemented with 10% FCS, 1 mM sodium pyruvate, 1×NEAA, 500 μg/ml G418 and 0.5×ABAM) and 60 μL of this suspension was dispensed per well into a 96-well microtiter plate. After 3 hours of incubation at 37° C./5% CO2 an equal volume of detection medium containing a final concentration of 6 mM Paraquat was added and subsequently incubated for 2 days at 37° C./5% CO2. Then LDH activity was determined using the Promega Cytotox 96 Non-Radioactive cytotoxicity assay (Promega, Cat. G1780), according to the manufacturer's instructions. Cytotoxicity was defined as the ratio of LDH relative to the total LDH in the cells and supernatant.
The assay described above using the M17_3SYN cell line allowed screening compounds for their ability to decrease cytotoxicity in PQ-challenged cells. Compounds of the invention were tested for their ability to decrease toxicity at different concentrations, ranging from low non-effective concentrations to high effective concentrations. Afterwards, a dose-dependent inhibition curve was used to calculate the EC50. A compound was considered to be active in this test when it inhibited toxicity by more than 20% relative to untreated M17_3SYN cells at a concentration of […] or lower.

`O=S(=O)(c1ccc(OC(F)F)cc1)N1CCC2(CC1)CN(c1nc(Cc3ccc(F)cc3)ns1)C2` [Cmpd085, 5-(7-((4-(Difluoromethoxy)phenyl)sulfonyl)-2,7-diazaspiro[3.5]nonan-2-yl)-3-(4-fluorobenzyl)-1,2,4-thiadiazole] and `Cc1ccc(S(=O)(=O)N2CCC3(CC2)CN(c2nc(Cc4ccc(F)cc4)ns2)C3)s1` [Cmpd095, 3-(4-Fluorobenzyl)-5-(7-((5-methylthiophen-2-yl)sulfonyl)-2,7-diazaspiro[3.5]nonan-2-yl)-1,2,4-thiadiazole] are within 0.2 log units of each other in pEC50: 6.27 for the first, 6.42 for the second.

`COc1ccc(F)cc1S(=O)(=O)N1CCC2(CC1)CN(c1nc(Cc3ccc(F)cc3)ns1)C2` [Cmpd086, 5-(7-((5-Fluoro-2-methoxyphenyl)sulfonyl)-2,7-diazaspiro[3.5]nonan-2-yl)-3-(4-fluorobenzyl)-1,2,4-thiadiazole] and `Cn1cc(S(=O)(=O)N2CCC3(CC2)CN(c2nc(Cc4ccc(F)cc4)ns2)C3)cn1` [Cmpd090, 3-(4-Fluorobenzyl)-5-(7-((1-methyl-1H-pyrazol-4-yl)sulfonyl)-2,7-diazaspiro[3.5]nonan-2-yl)-1,2,4-thiadiazole] are within 0.2 log units of each other in pEC50: 6.52 for the first, 6.55 for the second.

Compared with `O=S(=O)(CC1CCCCC1)N1CCC2(CC1)CN(c1nc(Cc3ccc(F)cc3)ns1)C2` [Cmpd097, 5-(7-((Cyclohexylmethyl)sulfonyl)-2,7-diazaspiro[3.5]nonan-2-yl)-3-(4-fluorobenzyl)-1,2,4-thiadiazole], `O=S(=O)(N1CCOCC1)N1CCC2(CC1)CN(c1nc(Cc3ccc(F)cc3)ns1)C2` [Cmpd098, 4-((2-(3-(4-Fluorobenzyl)-1,2,4-thiadiazol-5-yl)-2,7-diazaspiro[3.5]nonan-7-yl)sulfonyl)morpholine] is 0.80 log units lower in pEC50: 6.72 for the first, 5.92 for the second.

tested on: INS-1E cells; test: Cytokine-induced apoptosis (caspase-3/7 activation, Caspase-Glo 3/7) in INS-1E rat insulinoma cells; format: cell-based; conditions: cytokine mix (IFN-γ, IL-1, TNF-α), 24 hours, caspase 3/7 activity, read-out: CYT EC50
From the text: The INS-1E cell line, a rat insulinoma cell line, has been characterized extensively. INS-1E cells respond to glucose by secreting insulin and, unlike most other immortalized n-cell lines, they do this in a consistent manner over time. The cells are sensitive to hyperglycemia-, free fatty acid (FFA)-, and cytokine-induced stress. Prolonged stress ultimately leads to induction of apoptotic pathways and, if stress is not counter-acted, to apoptosis. Caspase-3 and -7 play a central role downstream where various apoptotic pathways merge. As such, activation (i.e. cleavage) of these caspases forms a relevant primary read-out to evaluate protective activity of compounds against stress-induced apoptosis.
To evaluate the efficacy of different compounds to prevent induction of apoptosis, an in vitro screen was developed in which INS-1E cells were exposed to a cytokine mix (IFN-γ, 5 ng/ml; IL-1, 20 pg/ml; TNF-α, 0.25 ng/ml). The degree of induction of apoptosis was evaluated using a substrate for cleaved caspase-3 and -7, i.e. a proluminescent caspase-3/7 DEVD aminoluciferin substrate with a thermostable luciferase (Caspase-Glo® 3/7 assay; Promega, cat. G8092).
On day 0, INS-1E cells were plated in a white-walled 96-well microplate (Greiner, cat. 655098) at 20,000 cells per well in 100 μl complete medium (RPMI containing 11 mM glucose supplemented with 5% FCS, 100 IU/ml penicillin, 100 μg/ml streptomycin, 10 mM HEPES, 1 mM Sodium Pyruvate and 50 μM 2-Mercapto-ethanol). On day 2, 100 μl medium containing cytokines and compound dissolved in DMSO was added to the cells. Wells without cytokines containing DMSO and wells with cytokines and DMSO were included to evaluate the degree of caspase 3/7 activation by the cytokine mix. After 24 hours exposure to cytokines and/or compound, Caspase-Glo® 3/7 reagent was added to the cells and caspase activity was determined by measuring luminescence.
To evaluate compound efficacy, the “toxicity window” was calculated by subtracting caspase activity of wells without stressor from activity of wells with stressor but without compound. The amount of caspase activity in the latter wells was normalized to 1 and used as reference. Subsequently, caspase activity in the wells with stressor and varying concentrations of compound was calculated relative to the wells without compound. Plotting caspase activity vs the log 10 of the concentration of compound permitted calculation of the EC50 values for the compounds which typically lied between 0.0001 and 10 μM. Compounds with an EC50<10 μM were considered active.

`COc1ccc(S(=O)(=O)N2CCC3(CC2)CN(S(=O)(=O)c2ccc(OC(F)F)cc2)C3)cc1` [Cmpd003, 2-((4-(Difluoromethoxy)phenyl)sulfonyl)-7-((4-methoxyphenyl)sulfonyl)-2,7-diazaspiro[3.5]nonane] and `CCOc1ccc(S(=O)(=O)N2CC3(CCN(S(=O)(=O)c4ccc(OC(F)F)cc4)CC3)C2)cc1` [Cmpd042, 7-((4-(Difluoromethoxy)phenyl)sulfonyl)-2-((4-ethoxyphenyl)sulfonyl)-2,7-diazaspiro[3.5]nonane] are within 0.2 log units of each other in pEC50: 7.40 for the first, 7.39 for the second.

`COc1ccc(S(=O)(=O)N2CCC3(CC2)CN(C(=O)Cc2ccc(F)cc2)C3)cc1` [Cmpd006, 2-(4-Fluorophenyl)-1-(7-((4-methoxyphenyl)sulfonyl)-2,7-diazaspiro[3.5]nonan-2-yl)ethanone] and `COc1ccc(S(=O)(=O)N2CCC3(CC2)CN(C(=O)Cc2ccccc2)C3)cc1` [Cmpd010, 1-(7-((4-Methoxyphenyl)sulfonyl)-2,7-diazaspiro[3.5]nonan-2-yl)-2-phenylethanone] are the same in pEC50: 6.75 for the first, 6.75 for the second.

Compared with `COc1ccc(S(=O)(=O)N2CCC3(CC2)CN(C(=O)C2CCOc4ccccc42)C3)cc1` (centres unmarked) [Cmpd021, Chroman-4-yl(7-((4-methoxyphenyl)sulfonyl)-2,7-diazaspiro[3.5]nonan-2-yl)methanone], `COc1ccc(S(=O)(=O)N2CCC3(CC2)CN(c2nc(-c4ccc(Cl)cc4)ns2)C3)cc1` [Cmpd039, 3-(4-Chlorophenyl)-5-(7-((4-methoxyphenyl)sulfonyl)-2,7-diazaspiro[3.5]nonan-2-yl)-1,2,4-thiadiazole] is 0.70 log units higher in pEC50: 6.30 for the first, 7.00 for the second.

Going from `COc1ccc(S(=O)(=O)N2CCC3(CC2)CN(c2nc(-c4cnccn4)ns2)C3)cc1` [Cmpd038, 5-(7-((4-Methoxyphenyl)sulfonyl)-2,7-diazaspiro[3.5]nonan-2-yl)-3-(pyrazin-2-yl)-1,2,4-thiadiazole] to `O=S(=O)(c1ccc(OC(F)F)cc1)N1CCC2(CC1)CN(S(=O)(=O)c1ccc(Cl)cc1)C2` [Cmpd043, 2-((4-Chlorophenyl)sulfonyl)-7-((4-(difluoromethoxy)phenyl)sulfonyl)-2,7-diazaspiro[3.5]nonane], the pEC50 rises from 6.50 to 7.07 (0.57 log units).
